Assay results published in US20170347654A1, “Herbicidal Compounds” (SYNGENTA PARTICIPATIONS AG, priority 2014, published 2017).

Legend:
Assay in all cases: Post-emergence efficacy (glasshouse)
Assay type in all cases: in vivo
Settings in all cases: evaluated after 13 days
[1] = system: Amaranthus retoflexus (AMARE)
Method: (§1) Seeds of a variety of test species (such as, for example, Solanum nigrum (SOLNI), Amaranthus retoflexus (AMARE), Setaria faberi (SETFA), Echinochloa crusgalli (ECHCG), Ipomoea hederacea (IPOHE) and Lolium perenne (LOLPE)) are sown in standard soil in pots. After 8 days cultivation (post-emergence) under controlled conditions in a glasshouse (at 24/16° C., day/night; 14 hours light; 65% humidity), the plants are sprayed with an aqueous spray solution derived from the formulation of the technical active ingredient in acetone/water (50:50) solution containing 0.5% Tween 20 (polyoxyethylene sorbitan monolaurate, CAS RN 9005-64-5). Compounds are applied at 1000 and 62.5 g/ha. The test plants are then grown under controlled conditions in a glasshouse (at 24/16° C., day/night; 14 hours light; 65% humidity) and watered twice daily. After 13 days, the test is evaluated for the percentage damage caused to the plant. The biological activities are assessed on a five point scale (5=80-100%; 4=60-79%; 3=40-59%; 2=20-39%; 1=0-19%).

[2] = system: Echinochloa crusgalli (ECHCG)
Method: as §1

[3] = system: Ipomoea hederacea (IPOHE)
Method: as §1

[4] = system: Lolium perenne (LOLPE)
Method: as §1

[5] = system: Setaria faberi (SETFA)
Method: as §1

[6] = system: Solanum nigrum (SOLNI)
Method: as §1

For `C#CCn1c(=O)c(-c2c(Cl)ccc(Cl)c2OCc2ccccc2)c(O)c2scnc21` [Compound 1.001, 6-(2-benzyloxy-3,6-dichloro-phenyl)-7-hydroxy-4-prop-2-ynyl-thiazolo[4,5-b]pyridin-5-one], the “percentage damage caused to the plant, AMARE (five point scale)” value ([1]; 62.5 g/ha) was 5 (5=80-100%), the “percentage damage caused to the plant, AMARE (five point scale)” value ([1]; 1000 g/ha) was 5 (5=80-100%) and the “percentage damage caused to the plant, ECHCG (five point scale)” value ([2]; 62.5 g/ha) was 5 (5=80-100%). For the same compound, the “percentage damage caused to the plant, ECHCG (five point scale)” value ([2]; 1000 g/ha) was 5 (5=80-100%), the “percentage damage caused to the plant, IPOHE (five point scale)” value ([3]; 62.5 g/ha) was 5 (5=80-100%) and the “percentage damage caused to the plant, IPOHE (five point scale)” value ([3]; 1000 g/ha) was 5 (5=80-100%). The “percentage damage caused to the plant, LOLPE (five point scale)” value ([4]; 62.5 g/ha) was 5 (5=80-100%), the “percentage damage caused to the plant, LOLPE (five point scale)” value ([4]; 1000 g/ha) was 5 (5=80-100%) and the “percentage damage caused to the plant, SETFA (five point scale)” value ([5]; 62.5 g/ha) was 5 (5=80-100%). The “percentage damage caused to the plant, SETFA (five point scale)” value ([5]; 1000 g/ha) was 5 (5=80-100%), the “percentage damage caused to the plant, SOLNI (five point scale)” value ([6]; 62.5 g/ha) was 5 (5=80-100%) and the “percentage damage caused to the plant, SOLNI (five point scale)” value ([6]; 1000 g/ha) was 5 (5=80-100%).

With `C#CCn1c(=O)c(-c2c(F)ccc(Cl)c2OCc2ccccc2)c(O)c2scnc21` [Compound 1.007] the “percentage damage caused to the plant, AMARE (five point scale)” value ([1]; 62.5 g/ha) was 5 (5=80-100%), the “percentage damage caused to the plant, AMARE (five point scale)” value ([1]; 1000 g/ha) was 5 (5=80-100%) and the “percentage damage caused to the plant, ECHCG (five point scale)” value ([2]; 62.5 g/ha) was 5 (5=80-100%). The “percentage damage caused to the plant, ECHCG (five point scale)” value ([2]; 1000 g/ha) was 5 (5=80-100%), the “percentage damage caused to the plant, IPOHE (five point scale)” value ([3]; 62.5 g/ha) was 5 (5=80-100%) and the “percentage damage caused to the plant, IPOHE (five point scale)” value ([3]; 1000 g/ha) was 5 (5=80-100%). For the same compound, the “percentage damage caused to the plant, LOLPE (five point scale)” value ([4]; 62.5 g/ha) was 5 (5=80-100%), the “percentage damage caused to the plant, LOLPE (five point scale)” value ([4]; 1000 g/ha) was 5 (5=80-100%) and the “percentage damage caused to the plant, SETFA (five point scale)” value ([5]; 62.5 g/ha) was 5 (5=80-100%). The “percentage damage caused to the plant, SETFA (five point scale)” value ([5]; 1000 g/ha) was 5 (5=80-100%), the “percentage damage caused to the plant, SOLNI (five point scale)” value ([6]; 62.5 g/ha) was 5 (5=80-100%) and the “percentage damage caused to the plant, SOLNI (five point scale)” value ([6]; 1000 g/ha) was 5 (5=80-100%).

In the case of `C#CCn1c(=O)c(-c2c(C(F)(F)F)ccc(Cl)c2OCc2ccccc2)c(O)c2scnc21` [Compound 1.009], the “percentage damage caused to the plant, AMARE (five point scale)” value ([1]; 62.5 g/ha) is reported as 5 (5=80-100%), the “percentage damage caused to the plant, AMARE (five point scale)” value ([1]; 1000 g/ha) is reported as 5 (5=80-100%) and the “percentage damage caused to the plant, ECHCG (five point scale)” value ([2]; 62.5 g/ha) is reported as 5 (5=80-100%). For the same compound, the “percentage damage caused to the plant, ECHCG (five point scale)” value ([2]; 1000 g/ha) was 5 (5=80-100%), the “percentage damage caused to the plant, IPOHE (five point scale)” value ([3]; 62.5 g/ha) was 5 (5=80-100%) and the “percentage damage caused to the plant, IPOHE (five point scale)” value ([3]; 1000 g/ha) was 5 (5=80-100%). For the same compound, the “percentage damage caused to the plant, LOLPE (five point scale)” value ([4]; 62.5 g/ha) was 5 (5=80-100%), the “percentage damage caused to the plant, LOLPE (five point scale)” value ([4]; 1000 g/ha) was 5 (5=80-100%) and the “percentage damage caused to the plant, SETFA (five point scale)” value ([5]; 62.5 g/ha) was 5 (5=80-100%). For the same compound, the “percentage damage caused to the plant, SETFA (five point scale)” value ([5]; 1000 g/ha) was 5 (5=80-100%), the “percentage damage caused to the plant, SOLNI (five point scale)” value ([6]; 62.5 g/ha) was 5 (5=80-100%) and the “percentage damage caused to the plant, SOLNI (five point scale)” value ([6]; 1000 g/ha) was 5 (5=80-100%).

`Cn1c(=O)c(-c2c(Cl)ccc(Cl)c2OCc2ccccc2)c(O)c2scnc21` [Compound 1.011] was tested, and the “percentage damage caused to the plant, AMARE (five point scale)” value ([1]; 62.5 g/ha) was 4 (4=60-79%), the “percentage damage caused to the plant, AMARE (five point scale)” value ([1]; 1000 g/ha) was 5 (5=80-100%) and the “percentage damage caused to the plant, ECHCG (five point scale)” value ([2]; 62.5 g/ha) was 3 (3=40-59%). For the same compound, the “percentage damage caused to the plant, ECHCG (five point scale)” value ([2]; 1000 g/ha) was 5 (5=80-100%), the “percentage damage caused to the plant, IPOHE (five point scale)” value ([3]; 62.5 g/ha) was 5 (5=80-100%) and the “percentage damage caused to the plant, IPOHE (five point scale)” value ([3]; 1000 g/ha) was 5 (5=80-100%). The “percentage damage caused to the plant, LOLPE (five point scale)” value ([4]; 62.5 g/ha) was 2 (2=20-39%), the “percentage damage caused to the plant, LOLPE (five point scale)” value ([4]; 1000 g/ha) was 5 (5=80-100%) and the “percentage damage caused to the plant, SETFA (five point scale)” value ([5]; 62.5 g/ha) was 2 (2=20-39%). For the same compound, the “percentage damage caused to the plant, SETFA (five point scale)” value ([5]; 1000 g/ha) was 5 (5=80-100%), the “percentage damage caused to the plant, SOLNI (five point scale)” value ([6]; 62.5 g/ha) was 5 (5=80-100%) and the “percentage damage caused to the plant, SOLNI (five point scale)” value ([6]; 1000 g/ha) was 5 (5=80-100%).
